Usually IC50 stands for the concentration needed to halve the response being measured. As a reminder, the GI50 is the concentration at which growth is held to half of that of the control. Read a low GI50 as greater sensitivity of the cells.

The values that follow come from paper PMC9848300, “Discovery of novel enasidenib analogues targeting inhibition of mutant isocitrate dehydrogenase 2 as antileukaemic agents” (Journal of Enzyme Inhibition and Medicinal Chemistry, 2023).

Where a chain is given by its changes, count along the chain named.

One experiment deals with IDH2 R140Q. The settings on record: Figure 2; cited from earlier work.
The test system of a further experiment is CCRF-CEM. Put plainly: NCI 60 antitumor screening (single dose / five doses). The format is cell-based. To be noted: Homo sapiens, CCRF-CEM.
For the next experiment, the system named is HCT-116. The experiment is described as above. The format is cell-based. The settings on record: Homo sapiens, HCT-116.
For another experiment, the system named is SN 12C. The experiment is described as above. The settings on record: Homo sapiens, SN12C. The format is cell-based.
For the next experiment, the system named is HL-60(TB). The experiment is described as above. To be noted: Homo sapiens, HL-60. It counts as cell-based.
Another experiment deals with EKVX. The experiment is described as above. It counts as cell-based. To be noted: Homo sapiens, EKVX.
The test system of a further experiment is LOX IMVI. The experiment is described as above. It counts as cell-based. To be noted: Homo sapiens, LOX IMVI.
The test system of the next experiment is MDA-MB-468. The experiment is described as above. The format is cell-based. The settings on record: Homo sapiens, MDA-MB-468.
Another experiment concerns SW-620. Described as above. The format is cell-based, human. To be noted: Homo sapiens, SW-620.
The next experiment relates to RPMI-8226. Described as above. The format is cell-based. To be noted: Homo sapiens, RPMI-8226.
A further experiment concerns HT29. The description is as above. The format is cell-based, human. The settings on record: Homo sapiens, HT-29.
In another experiment the test system is BT-549. The experiment is described as above. The format is cell-based. To be noted: Homo sapiens, BT-549.
The next experiment has as its system DU-145. The experiment is described as above. To be noted: Homo sapiens, DU-145. It counts as cell-based.
A further experiment deals with SF-295. The experiment is described as above. It counts as cell-based. To be noted: Homo sapiens, SF-295.
A further experiment deals with SR. Described as above. The format is cell-based. The settings on record: Homo sapiens, SR.
The subject of a further experiment is 786-0. The description is as above. To be noted: Homo sapiens, 786-0. The format is cell-based.
The subject of another experiment is K-562. Described as above. It counts as cell-based. The settings on record: Homo sapiens, K562.
For the next experiment, the system named is COLO 205. Described as above. To be noted: Homo sapiens, COLO 205. It counts as cell-based.
A further experiment deals with SF-539. The experiment is described as above. It counts as cell-based. To be noted: Homo sapiens, SF-539.
The subject of a further experiment is T-47D. Described as above. It counts as cell-based. The settings on record: Homo sapiens, T47D.
A further experiment has as its system MOLT-4. Described as above. The settings on record: Homo sapiens, MOLT-4. The format is cell-based.
In a further experiment the test system is MALME-3M. The description is as above. It counts as cell-based. To be noted: Homo sapiens, Malme-3M.
Another experiment relates to MDA-MB-435. The experiment is described as above. It counts as cell-based. The settings on record: Homo sapiens, MDA-MB-435.
The next experiment has as its system HOP-92. The experiment is described as above. It counts as cell-based. To be noted: Homo sapiens, HOP-92.
Another experiment has as its system MDA-MB-231/ATCC. The experiment is described as above. To be noted: Homo sapiens, MDA-MB-231. It counts as cell-based.
The target in a further experiment is T1, IDH2^R140Q (Homo sapiens, UniProt P48735, R140Q).
T1 sequence (P48735 40-452 R140Q): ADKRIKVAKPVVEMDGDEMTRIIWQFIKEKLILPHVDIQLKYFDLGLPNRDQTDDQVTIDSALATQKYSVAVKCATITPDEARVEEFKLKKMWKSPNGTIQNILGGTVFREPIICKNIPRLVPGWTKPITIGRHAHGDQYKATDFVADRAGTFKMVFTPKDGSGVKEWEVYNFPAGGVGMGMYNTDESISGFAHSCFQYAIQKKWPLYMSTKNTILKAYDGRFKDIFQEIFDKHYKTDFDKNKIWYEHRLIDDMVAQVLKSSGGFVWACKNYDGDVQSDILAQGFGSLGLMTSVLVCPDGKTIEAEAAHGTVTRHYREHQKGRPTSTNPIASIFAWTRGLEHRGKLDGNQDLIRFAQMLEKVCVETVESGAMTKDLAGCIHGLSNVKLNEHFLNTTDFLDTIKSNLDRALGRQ
Put plainly: biochemical.

The subject of the next experiment is HCT-15. Put plainly: NCI 60 antitumor screening (single dose / five doses). The format is cell-based. The settings on record: Homo sapiens, HCT-15.
Another experiment deals with SNB-75. Described as above. The format is cell-based. To be noted: Homo sapiens, SNB-75.
In another experiment the test system is A498. The experiment is described as above. It counts as cell-based. The settings on record: Homo sapiens, A498.
The next experiment concerns UACC-257. The experiment is described as above. The format is cell-based. The settings on record: Homo sapiens, UACC-257.
For the next experiment, the target named is T2, wild type IDH2 (Homo sapiens, UniProt P48735).
T2 sequence (P48735 40-452): T1 sequence (P48735 40-452 R140Q) with Q101R
Put plainly: IDH2 enzyme inhibition assay (wild type IDH Assay Kit).

A further experiment concerns NCI/ADR-RES. Put plainly: NCI 60 antitumor screening (single dose / five doses). It counts as cell-based. The settings on record: Homo sapiens, NCI/ADR-RES.
The subject of another experiment is RXF 393. The experiment is described as above. It counts as cell-based. To be noted: Homo sapiens, RXF 393.
For another experiment, the system named is ACHN. The description is as above. It counts as cell-based. The settings on record: Homo sapiens, ACHN.
The subject of another experiment is IGROV1. The description is as above. To be noted: Homo sapiens, IGROV-1. The format is cell-based.
In the next experiment the test system is UACC-62. Described as above. It counts as cell-based. The settings on record: Homo sapiens, UACC-62.
A further experiment has as its system UO-31. The description is as above. It counts as cell-based. The settings on record: Homo sapiens, UO-31.
Another experiment concerns SK-MEL-28. Described as above. The format is cell-based. The settings on record: Homo sapiens, SK-MEL-28.
Another experiment has as its system SK-MEL-5. The description is as above. It counts as cell-based. To be noted: Homo sapiens, SK-MEL-5.
Another experiment concerns IDH1 R132H. To be noted: Figure 2; cited from earlier work.

`O=C(Nc1cccc(C(F)(F)F)c1)Nc1cc(S(=O)(=O)NC2CC2)ccc1-c1ccsc1` [AGI-6780]: the IC50 with IDH2 R140Q is 0.023 µM.

In the case of `Cc1ccc(Cl)cc1NC(=O)Nc1cc(NC(=O)c2ccccc2)ccc1N1CCCC1` [CP-17], the IC50 in the experiment on IDH2 R140Q was 0.041 µM.

Take `CC(C)(O)CNc1nc(Nc2ccnc(C(F)(F)F)c2)nc(-c2cccc(C(F)(F)F)n2)n1` [Enasidenib]: the 50% growth inhibitory concentration (GI50) was found to be 19.9 µM in the experiment with CCRF-CEM; 15.8 µM in the experiment with HCT-116; 19.9 µM in the experiment on SN 12C; 19.9 µM in the experiment with HL-60(TB); 19.9 µM in the experiment with EKVX; 15.8 µM with LOX IMVI. Further, the GI50 stood at 19.9 µM in the experiment on MDA-MB-468; 25.1 µM in the experiment on SW-620; 19.9 µM with RPMI-8226; 15.8 µM in the experiment with HT29; 15.8 µM in the experiment on BT-549; 19.9 µM with DU-145. The GI50 in the experiment on SF-295 was 15.8 µM; in the experiment on SR, 19.9 µM; in the experiment on 786-0, 19.9 µM; with K-562, 31.6 µM; in the experiment on COLO 205, 19.9 µM; in the experiment on SF-539, 15.8 µM. Further, the GI50 in the experiment on T-47D is 15.8 µM; in the experiment on MOLT-4, 12.6 µM; in the experiment on MALME-3M it was 19.9 µM; with MDA-MB-435, 15.8 µM; in the experiment with HOP-92 it was 25.1 µM; with MDA-MB-231/ATCC, 19.9 µM. Also, the GI50 was found to be 19.9 µM in the experiment on HCT-15; 15.8 µM in the experiment with SNB-75; 15.8 µM with A498; 19.9 µM with UACC-257; 15.8 µM in the experiment on NCI/ADR-RES; 19.9 µM in the experiment with RXF 393. Moreover, the 50% growth inhibitory concentration (GI50) in the experiment with ACHN amounted to 25.1 µM; with IGROV1, 31.6 µM; with UACC-62 it was 15.8 µM; with UO-31, 19.9 µM; with SK-MEL-28 it was 15.8 µM; in the experiment on SK-MEL-5, 12.6 µM. The IC50 in the experiment on IDH2 R140Q was 0.1 µM; on IDH2^R140Q, 0.0755 ± 0.00369 µM; against wild type IDH2, 2.33 ± 0.09 µM.

As to `CC(C)Nc1cc(Nc2cccc(C(F)(F)F)n2)nc(-c2cccc(C(F)(F)F)c2)c1` [III], the IC50 with IDH2 R140Q was 0.074 µM.

Turning to `CC(C)Nc1cc(Nc2cccc(C(F)(F)F)n2)nc(-c2cccc(Cl)c2)c1` [II], the IC50 in the experiment with IDH2 R140Q was 0.06 µM.

Regarding `CC(C)Nc1cc(Nc2cc(C(F)(F)F)ccn2)nc(-c2ccccc2)c1` [I], in the experiment with IDH2 R140Q, the IC50 is 0.055 µM.

For the compound `CC(C)(C)ONc1nc(Nc2ccnc(C(F)(F)F)c2)nc(-c2cccc(C(F)(F)F)n2)n1` [TQ05310], in the experiment on IDH2 R140Q, the IC50 was 0.137 µM.

Turning to `C[C@@H](Nc1nc(N[C@H](C)C(F)(F)F)nc(-c2cccc(Cl)n2)n1)C(F)(F)F` [Vorasidenib], the IC50 with IDH1 R132H was 0.006 µM.
